These results are taken from paper PMC7190597, “Characterisation of four hotdog-fold thioesterases for their implementation in a novel organic acid production system” (Applied Microbiology and Biotechnology, 2020).

The target in one test is T1, PA2801 (Pseudomonas aeruginosa, UniProt Q9I042).
T1 construct: full-length in pET29a, expressed in E. coli BL21(DE3), clarified lysate
T1 sequence (Q9I042 1-134): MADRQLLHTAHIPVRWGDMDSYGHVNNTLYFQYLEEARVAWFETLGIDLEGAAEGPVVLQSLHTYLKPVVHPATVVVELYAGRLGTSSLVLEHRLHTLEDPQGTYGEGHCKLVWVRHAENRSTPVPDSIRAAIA
The test is described as follows: DTNB assay on clarified lysate, empty-vector lysate control. The following applies: 0.2 mM substrate, 100 mM triethanolamine pH 8, 25 °C, 0.4 mM DTNB. Type of test: biochemical.

For the next test, the target named is T2, YbdB (Escherichia coli, UniProt P0A8Y8).
T2 construct: gene entH; full-length in pET29a, expressed in E. coli BL21(DE3), clarified lysate
T2 sequence (P0A8Y8 1-137): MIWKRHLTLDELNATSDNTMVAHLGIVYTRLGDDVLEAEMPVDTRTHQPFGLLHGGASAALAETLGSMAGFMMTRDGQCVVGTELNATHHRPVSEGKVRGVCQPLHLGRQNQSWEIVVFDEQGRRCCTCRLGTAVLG
Described as above. Type of test: biochemical. To be noted: 0.2 mM substrate, 100 mM triethanolamine pH 8, 25 °C, 0.4 mM DTNB.

As to `CC(O)CC(=O)SCCNC(=O)CCNC(=O)[C@H](O)C(C)(C)COP(=O)(O)OP(=O)(O)OC[C@H]1O[C@@H](n2cnc3c(N)ncnc32)[C@H](O)[C@@H]1OP(=O)(O)O` (mixture of isomers) [DLBH CoA, DL-β-hydroxybutyryl CoA], the “DTNB assay on clarified lysate, empty-vector lysate control” value (shortened to “DTNB assay on clarified lysate”) on PA2801 is reported as “PA2801 was found to have activity towards the aliphatic CoA esters: DLBH CoA”.
For the molecule `CC(C)(COP(=O)(O)OP(=O)(O)OC[C@H]1O[C@@H](n2cnc3c(N)ncnc32)[C@H](O)[C@@H]1OP(=O)(O)O)[C@@H](O)C(=O)NCCC(=O)NCCSC(=O)c1ccccc1` [Bz CoA, Benzoyl CoA], the “DTNB assay on clarified lysate” value at YbdB was “YbdB was found to only have activity towards Bz CoA and nHD CoA”.
For `CC(C)(COP(=O)(O)OP(=O)(O)OC[C@H]1O[C@@H](n2cnc3c(N)ncnc32)[C@H](O)[C@@H]1OP(=O)(O)O)[C@@H](O)C(=O)NCCC(=O)NCCSC(=O)C1CCCCC1` [CHC CoA, cyclohexanecarboxylic acid coenzyme A], the “DTNB assay on clarified lysate” value at PA2801 is recorded as “despite activity being found with CHC CoA, no activity was found with CHC-NAC”.
With `CCCCCCCCCCCCCCCCC(=O)SCCNC(=O)CCNC(=O)[C@H](O)C(C)(C)COP(=O)(O)OP(=O)(O)OC[C@H]1O[C@@H](n2cnc3c(N)ncnc32)[C@H](O)[C@@H]1OP(=O)(O)O` [nHD CoA, n-heptadecanoyl CoA], the “DTNB assay on clarified lysate” value at YbdB is “YbdB was found to only have activity towards Bz CoA and nHD CoA”.
